# According to patent US11512280B2, “Method for culturing spore-forming bacteria, and method for producing useful substance” (priority 2016, dated 2022):
# Legend:
# Assay type in all cases: cell-based
# [1] = test system: Bacillus subtilis MBI-600; assay: Culture of Bacillus subtilis with sporulation-inhibiting and sporulation-accelerating substances, 45 hours (Example 2)
# Experimental: (§1) Using a 500 ml Erlenmeyer flask (with baffles), each 100 ml of media listed in Table 1 was prepared and then autoclave sterilization was carried out. Note that glucose was separately sterilized and aseptically mixed in order to avoid Maillard reaction.
# (§2) Test sections were set as described in Table 3. According to the conditions of each test section, the filter-sterilized aqueous solution of each sporulation-inhibiting substance was added aseptically to each medium. According to the conditions of each test section, one loopful of Bacillus subtilis MBI-600 was taken from a colony grown on a nutrient agar medium, inoculated, and then cultured with shaking at 30° C. and 150 rpm.
# Sixteen (16) hours after the start of culture, each sporulation-accelerating substance was added according to the conditions of each test section, culture was continued. Forty-five (45) hours after the start of culture, culture was stopped.
# (§3) Each of the thus obtained culture liquid was diluted 10-fold with sterile water, and then the bacterial cell concentration (vegetative cells and spores) and the sporulation rate (spore concentration/bacterial cell concentration) were measured using an optical microscope and a bacterial cell counter.
# [2] = test system: Bacillus thuringiensis NBRC 101235 strain; assay: Culture of Bacillus thuringiensis with sporulation-inhibiting substance, 40 hours (Example 3); conditions: for Bacterial cell concentration / Spore concentration / Sporulation rate: 40 hours culture
# Experimental: as §1
# as §2, with “According” for “Test sections were set as described in Table 3. According”, “thuringiensis NBRC 101235 strain” for “subtilis MBI-600”, “rpm for 40 hours.” for “rpm.”
# as §3
# [3] = test system: Bacillus subtilis MBI-600; assay: Culture of Bacillus subtilis with sporulation-inhibiting substance, 64 hours (Example 1); conditions: for Spore concentration / Sporulation rate / Bacterial cell concentration: 64 hours culture; for bacterial cell concentrations as the concentration of the substance increased: trend over tested concentrations
# Experimental: Using a 500 ml Erlenmeyer flask (with baffles), each 100 ml of media listed in Table 1 was prepared and then autoclave sterilization was carried out. Glucose was separately sterilized and aseptically mixed in order to avoid Maillard reaction.
# as §2, with “According” for “Test sections were set as described in Table 3. According”, “One” for “According to the conditions of each test section, one”, “rpm for 64 hours.” for “rpm.”
# as §3
# [4] = sporulation-accelerating substance 3,000 ppm added at 16 hours, no inhibiting substance, 45 hours culture
# [5] = 1.4 ppm plus decoyinine 200 ppm at 16 hours, 45 hours
# [6] = 1.4 ppm, no accelerating substance, 45 hours
# [7] = 0.3 ppm plus ammonium lactate 3,000 ppm at 16 hours, 45 hours
# [8] = 0.3 ppm, no accelerating substance, 45 hours
# [9] = 0.5 ppm plus ammonium acetate 2,000 ppm at 16 hours, 45 hours
# [10] = 0.5 ppm plus ammonium acetate 3,000 ppm at 16 hours, 45 hours
# [11] = 0.5 ppm plus ammonium acetate 4,000 ppm at 16 hours, 45 hours
# [12] = 0.5 ppm plus ammonium lactate 3,000 ppm at 16 hours, 45 hours
# [13] = 0.5 ppm, no accelerating substance, 45 hours
# [14] = 1.0 ppm, no accelerating substance, 45 hours
# [15] = 2.0 ppm, no accelerating substance, 45 hours
smiles,measurement,setting,value
CC(=O)O.N [Ammonium acetate],bacterial cell concentration and sporulation rate as the amount of ammonium acetate added increased,[1]; lincomycin 0.5 ppm with ammonium acetate,increased
same,spore productivity compared with test sections in which no such substance had been added,[1]; lincomycin 0.5 ppm with ammonium acetate added,significantly higher
same,Bacterial cell concentration,[1]; [4],4.6e+09 mL⁻¹
same,Spore concentration,[1]; [4],4.2e+09 mL⁻¹
same,Sporulation rate,[1]; [4],91%
CC(O)C(=O)O.N (centres unmarked) [Ammonium lactate],sporulation rate compared with test sections in which no accelerating substance had been added,"[1]; ammonium lactate added, regardless of the lincomycin concentration",improvement was observed
same,spore productivity compared with test sections in which no such substance had been added,[1]; lincomycin 0.3 ppm and 0.5 ppm with ammonium lactate added,significantly higher
same,Bacterial cell concentration,[1]; [4],5.2e+09 mL⁻¹
same,Spore concentration,[1]; [4],4.8e+09 mL⁻¹
same,Sporulation rate,[1]; [4],91%
O=C(N[C@H](CO)[C@H](O)c1ccc([N+](=O)[O-])cc1)C(Cl)Cl [Chloramphenicol],effect of inhibiting sporulation,[1]; 1.4 ppm,observed
same,Bacterial cell concentration,[1]; [5],5.4e+09 mL⁻¹
same,Spore concentration,[1]; [5],4.1e+09 mL⁻¹
same,Sporulation rate,[1]; [5],76%
same,Bacterial cell concentration,[1]; [6],5.4e+09 mL⁻¹
same,Sporulation rate,[1]; [6],0%
same,spore productivity compared with test sections in which no such substance had been added,"[1]; chloramphenicol 1.4 ppm, both test sections (with and without decoyinine)",improved
same,bacterial cell concentration and spore concentration,[2]; 2.0 ppm,tended to increase
same,Bacterial cell concentration,[2]; 2.0 ppm,1.6e+09 mL⁻¹
same,Spore concentration,[2]; 2.0 ppm,1.3e+09 mL⁻¹
same,Sporulation rate,[2]; 2.0 ppm,79%
same,the growth and the effect of inhibiting sporulation,[2]; 6.0 ppm,confirmed
same,Bacterial cell concentration,[2]; 6.0 ppm,8e+06 mL⁻¹
same,Sporulation rate,[2]; 6.0 ppm,0%
C=C1O[C@@](CO)(n2cnc3c(N)ncnc32)[C@H](O)[C@@H]1O [Decoyinine],Sporulation rate,[1]; decoyinine added during culture in addition to chloramphenicol 1.4 ppm,improvement was observed
CCC[C@@H]1C[C@@H](C(=O)N[C@@H]([C@H]2O[C@H](SC)[C@H](O)[C@@H](O)[C@H]2O)[C@@H](C)O)N(C)C1 [Lincomycin],effect of inhibiting sporulation,[3]; 0.1 ppm,not observed
same,Spore concentration,[3]; 0.1 ppm added,4.7e+09 mL⁻¹
same,Sporulation rate,[3]; 0.1 ppm added,100%
same,Bacterial cell concentration,"[3]; 0.1 ppm added, carbon content 9.1 g/L",4.7e+09 mL⁻¹
same,effect of inhibiting sporulation,[3]; 1 ppm,observed
same,Bacterial cell concentration,[3]; 1.0 ppm added,7e+09 mL⁻¹
same,Sporulation rate,[3]; 1.0 ppm added,0%
same,bacterial cell concentrations as the concentration of the substance increased,[3],tended to increase
same,effect of inhibiting sporulation,[1]; 0.3 ppm,not observed
same,Bacterial cell concentration,[1]; [7],5.6e+09 mL⁻¹
same,Spore concentration,[1]; [7],5.1e+09 mL⁻¹
same,Sporulation rate,[1]; [7],91%
same,Bacterial cell concentration,[1]; [8],3.3e+09 mL⁻¹
same,Spore concentration,[1]; [8],2.7e+09 mL⁻¹
same,Sporulation rate,[1]; [8],80%
same,effect of inhibiting sporulation,[1]; 0.5 ppm or more,observed
same,Bacterial cell concentration,[1]; [9],6.4e+09 mL⁻¹
same,Spore concentration,[1]; [9],4.1e+09 mL⁻¹
same,Sporulation rate,[1]; [9],64%
same,Bacterial cell concentration,[1]; [10],7.6e+09 mL⁻¹
same,Spore concentration,[1]; [10],5.4e+09 mL⁻¹
same,Sporulation rate,[1]; [10],71%
same,Bacterial cell concentration,[1]; [11],8.4e+09 mL⁻¹
same,Spore concentration,[1]; [11],6.1e+09 mL⁻¹
same,Sporulation rate,[1]; [11],72%
same,Bacterial cell concentration,[1]; [12],7.2e+09 mL⁻¹
same,Spore concentration,[1]; [12],5.7e+09 mL⁻¹
same,Sporulation rate,[1]; [12],79%
same,Bacterial cell concentration,[1]; [13],4.4e+09 mL⁻¹
same,Sporulation rate,[1]; [13],0%
same,Bacterial cell concentration,[1]; [14],5.1e+09 mL⁻¹
same,Sporulation rate,[1]; [14],0%
same,Bacterial cell concentration,[1]; [15],5.9e+09 mL⁻¹
same,Sporulation rate,[1]; [15],0%
same,bacterial cell concentrations as the concentration of the substance increased,[1]; trend over tested concentrations,tended to increase
same,Bacterial cell concentration,[2]; 5.0 ppm,1.4e+09 mL⁻¹
same,Spore concentration,[2]; 5.0 ppm,1.2e+09 mL⁻¹
same,Sporulation rate,[2]; 5.0 ppm,86%
same,bacterial cell concentration and spore concentration,[2]; 10.0 ppm or lower,tended to increase
same,Bacterial cell concentration,[2]; 10.0 ppm,1.4e+09 mL⁻¹
same,Spore concentration,[2]; 10.0 ppm,1e+09 mL⁻¹
same,Sporulation rate,[2]; 10.0 ppm,71%
same,effect of inhibiting sporulation,[2]; 12.5 ppm,confirmed
same,Bacterial cell concentration,[2]; 12.5 ppm,9e+08 mL⁻¹
same,Spore concentration,[2]; 12.5 ppm,1e+08 mL⁻¹
same,Sporulation rate,[2]; 12.5 ppm,13%
[H]/N=C(/N)N[C@H]1[C@H](O)[C@@H](O)[C@H](O[C@@H]2O[C@@H](C)[C@](O)(C=O)[C@H]2O[C@@H]2O[C@@H](CO)[C@H](O)[C@@H](O)[C@@H]2NC)[C@@H](N/C(N)=N\[H])[C@@H]1O [Streptomycin],effect of inhibiting sporulation,[3]; 12.5 ppm,not observed
same,Bacterial cell concentration,[3]; 12.5 ppm added,4.3e+09 mL⁻¹
same,Spore concentration,[3]; 12.5 ppm added,4.3e+09 mL⁻¹
same,Sporulation rate,[3]; 12.5 ppm added,100%
same,effect of inhibiting sporulation,[3]; 15.0 ppm,observed
same,Bacterial cell concentration,[3]; 15.0 ppm added,5.5e+09 mL⁻¹
same,Spore concentration,[3]; 15.0 ppm added,3e+09 mL⁻¹
same,Sporulation rate,[3]; 15.0 ppm added,54%
same,bacterial cell concentrations as the concentration of the substance increased,[3],tended to increase
